Experimental data reported in BigSolDB 2.1.

C[C@H]1[C@H](OC(=O)CCC(=O)O)O[C@@H]2O[C@@]3(C)CC[C@H]4[C@H](C)CC[C@@H]1[C@@]24OO3
Details | solubility (mole fraction)
in ethanol, 283.06 K | 0.0113
in ethanol, 288.14 K | 0.0136
in ethanol, 293.19 K | 0.0168
in ethanol, 298.24 K | 0.0208
in ethanol, 303.21 K | 0.0263
in ethanol, 308.16 K | 0.0334
in ethanol, 313.14 K | 0.0423
in ethanol, 318.22 K | 0.0536
in ethanol, 323.2 K | 0.0657
in ethyl acetate, 283.17 K | 0.0199
in ethyl acetate, 288.17 K | 0.0221
in ethyl acetate, 293.16 K | 0.0246
in ethyl acetate, 298.14 K | 0.0278
in ethyl acetate, 303.17 K | 0.0309
in ethyl acetate, 308.14 K | 0.0344
in ethyl acetate, 313.17 K | 0.0382
in ethyl acetate, 318.16 K | 0.0423
in ethyl acetate, 323.19 K | 0.0473
in isobutanol, 283.14 K | 0.00543
in isobutanol, 288.07 K | 0.00698
in isobutanol, 293.14 K | 0.00912
in isobutanol, 298.1 K | 0.0118
in isobutanol, 303.05 K | 0.0155
in isobutanol, 308.08 K | 0.0196
in isobutanol, 313.07 K | 0.0252
in isobutanol, 318.05 K | 0.0325
in isobutanol, 323.15 K | 0.0408
in isopentanol, 283.16 K | 0.00573
in isopentanol, 288.17 K | 0.00721
in isopentanol, 293.14 K | 0.00915
in isopentanol, 298.16 K | 0.0119
in isopentanol, 303.16 K | 0.0151
in isopentanol, 308.14 K | 0.0194
in isopentanol, 313.17 K | 0.0244
in isopentanol, 318.16 K | 0.031
in isopentanol, 323.16 K | 0.0397
in isopropanol, 283.06 K | 0.00541
in isopropanol, 288.14 K | 0.00717
in isopropanol, 293.19 K | 0.00965
in isopropanol, 298.24 K | 0.012
in isopropanol, 303.21 K | 0.016
in isopropanol, 308.16 K | 0.0209
in isopropanol, 313.14 K | 0.0276
in isopropanol, 318.22 K | 0.0362
in isopropanol, 323.2 K | 0.047
in isopropyl acetate, 283.17 K | 0.0122
in isopropyl acetate, 288.19 K | 0.0135
in isopropyl acetate, 293.2 K | 0.0149
in isopropyl acetate, 298.14 K | 0.0167
in isopropyl acetate, 303.19 K | 0.0186
in isopropyl acetate, 308.16 K | 0.0206
in isopropyl acetate, 313.14 K | 0.0229
in isopropyl acetate, 318.14 K | 0.0258
in isopropyl acetate, 323.2 K | 0.029
in methyl propionate, 283.19 K | 0.0207
in methyl propionate, 288.22 K | 0.0232
in methyl propionate, 293.23 K | 0.0258
in methyl propionate, 298.17 K | 0.0286
in methyl propionate, 303.23 K | 0.0318
in methyl propionate, 308.14 K | 0.0355
in methyl propionate, 313.24 K | 0.0395
in methyl propionate, 318.16 K | 0.0442
in methyl propionate, 323.18 K | 0.0497
in n-butanol, 283.14 K | 0.00719
in n-butanol, 288.07 K | 0.00886
in n-butanol, 293.14 K | 0.0112
in n-butanol, 298.1 K | 0.0143
in n-butanol, 303.05 K | 0.0181
in n-butanol, 308.08 K | 0.0233
in n-butanol, 313.07 K | 0.0298
in n-butanol, 318.05 K | 0.0379
in n-butanol, 323.15 K | 0.0485
in n-butyl acetate, 283.17 K | 0.012
in n-butyl acetate, 288.19 K | 0.0135
in n-butyl acetate, 293.2 K | 0.015
in n-butyl acetate, 298.14 K | 0.0168
in n-butyl acetate, 303.19 K | 0.0191
in n-butyl acetate, 308.16 K | 0.0213
in n-butyl acetate, 313.14 K | 0.0237
in n-butyl acetate, 318.14 K | 0.0269
in n-butyl acetate, 323.2 K | 0.0304
in n-pentanol, 283.23 K | 0.0111
in n-pentanol, 288.23 K | 0.0137
in n-pentanol, 293.29 K | 0.017
in n-pentanol, 298.5 K | 0.0216
in n-pentanol, 303.24 K | 0.0266
in n-pentanol, 308.02 K | 0.0328
in n-pentanol, 313.08 K | 0.0408
in n-pentanol, 318.05 K | 0.0491
in n-pentanol, 323.1 K | 0.0594
in n-pentyl acetate, 283.14 K | 0.00918
in n-pentyl acetate, 288.24 K | 0.0104
in n-pentyl acetate, 293.3 K | 0.0117
in n-pentyl acetate, 298.28 K | 0.0133
in n-pentyl acetate, 303.24 K | 0.0149
in n-pentyl acetate, 308.22 K | 0.0168
in n-pentyl acetate, 313.13 K | 0.0191
in n-pentyl acetate, 318.18 K | 0.0216
in n-pentyl acetate, 323.24 K | 0.0244
in n-propanol, 283.14 K | 0.00832
in n-propanol, 288.07 K | 0.0103
in n-propanol, 293.14 K | 0.013
in n-propanol, 298.08 K | 0.0163
in n-propanol, 303.02 K | 0.0207
in n-propanol, 308.05 K | 0.0264
in n-propanol, 313.03 K | 0.034
in n-propanol, 318.05 K | 0.0427
in n-propanol, 323.05 K | 0.0542
in n-propyl acetate, 283.16 K | 0.0159
in n-propyl acetate, 288.24 K | 0.0176
in n-propyl acetate, 293.16 K | 0.0194
in n-propyl acetate, 298.18 K | 0.0216
in n-propyl acetate, 303.16 K | 0.024
in n-propyl acetate, 308.16 K | 0.0269
in n-propyl acetate, 313.18 K | 0.0302
in n-propyl acetate, 318.16 K | 0.0336
in n-propyl acetate, 323.16 K | 0.0375
